Read-outs that look alike come from different tables or passages of the source.
Columns and labels:
[1] = test system: MCF-7/ADR cells; experiment: Cytotoxicity (toxic effect) of each piperazine derivative alone, SRB assay; type: cell-based, human; conditions: 2 h incubation
Protocol: The MDR human breast cancer cell line MCF-7/ADR was maintained in RPMI 1640, supplemented with 2 mM L-glutamine, 10 mM HEPES, 24 mM NaHCO3, 10% fetal bovine serum, and 1% antibiotic-antimycotic agent at 37 °C in a humidified 5% CO2 atmosphere.
(§1) The cytotoxicity of each piperazine derivative was examined in the cells using the sulforhodamine B (SRB) assay. The changes in IC50 values of DNM, P-gp substrate anticancer drug were estimated in the presence of piperazine derivatives at a concentration of 100 μM. The details of the cytotoxicity assay were described in our previous report. […] The IC50 values were calculated with the Table Curve Windows program. The assay was performed in triplicate.

[2] = molecular target: human P-gp membrane (Homo sapiens, UniProt P08183); experiment: P-glycoprotein ATPase activity assay; conditions: 100 μM
Description: The rate of phosphate release per mg membrane protein represented the ATPase activity by converting to the relative ratio versus control value.

[3] = test system: MCF-7/ADR cells; experiment: Cytotoxicity assay (SRB): change of DNM IC50 in the presence of piperazine derivatives; type: cell-based; conditions: Homo sapiens, NCI/ADR-RES, DNM alone (negative control)
Protocol: as §1, with “The changes in IC50 values of DNM, P-gp substrate anticancer drug were estimated in the presence of piperazine derivatives at a concentration of 100 μM.” left out

[4] = molecular target: T1, P-gp (Homo sapiens, UniProt P08183); experiment: [3H]-DNM efflux study in P-gp overexpressing cells; type: cell-based; conditions: control: tritium-labeled DNM alone, 1 h, MCF-7/ADR cells
T1 construct: uptake (A) and efflux (B) of [^3H]-DNM in MCF-7/ADR cells; endogenous in cells; host or cells: MCF-7/ADR
Protocol: Tritium-labeled P-gp substrate uptake and efflux studies were performed using the modified Harker and Sikic method. […] For the efflux study, cells were incubated with 0.05 μM tritium-labeled DNM for 1 h and subsequently in the absence or presence of 100 μM of pre-selected derivatives for another 1 h after removing 0.05 μM of the tritium-labeled DNM. The uptake and efflux values based on the radioactivity estimated by Liquid Scintillation Counting were normalized to those of 1 × 10^6 cells. The detailed procedures have been reported previously.

[5] = PTX pharmacokinetics in rats, alone or orally co-administered with compound 4; type: in vivo, Sprague-Dawley rats; conditions: for AUC(0-inf): read-out: AUCinf of PTX; for k el: read-out: ke of PTX (converted); for half-life: read-out: t1/2 of PTX (converted)
Protocol: All the animal experiments were performed using six-week-old male Sprague-Dawley rats (200–235 g) under the procedures granted by the Ewha Womans University Institutional Animal Care and Use Committee (IACUC) (No. 2012-01-019), Korea.
PTX at 2 mg/mL was prepared immediately prior to use with a commercial formulation of Taxol® (Cremophor® EL, anhydrous ethanol and isotonic saline (1:1:4, v/v/v)). Compound 4 (N-(4-(4-bromophenyl)thiazol-2-yl)-2-(N-(2-(4-((4-chlorophenyl)(phenyl)methyl)piperazin-1-yl)-2-oxoethyl)acetamido)acetamide) was prepared using a process similar to PTX formulation for oral administration.
For intravenous injection of 2 mg/kg of PTX (IV) and oral administration of 25 mg/kg of PTX (PO) with 0, 2, or 5 mg/kg of compound 4, the rats were divided into 4 groups on the day. The common carotid artery was catheterized for blood sampling. Blood sampling was conducted at 0, 0.033, 0.083, 0.25, 0.5, 1, 2, 3, 4, 6, 10, and 24 h for the IV group and 0, 0.25, 0.5, 1, 2, 3, 4, 6, 8, 10, and 24 h for PO groups.
Prepared plasma samples mixed with internal standard (4-hydroxybenzoic acid n-hexyl ester) were analyzed by the HPLC system.
WinNonlin® Professional version 5.2 software (Pharsight Corporation, Mountain View, CA, USA) was used to estimate the PK parameters following intravenous or oral PTX administrations to the rats. Non-compartmental analysis was performed using the plasma PTX concentration–time profiles to obtain the following PK parameters: Area under the plasma concentration–time curve from zero time to infinity (AUCinf), elimination half-life (t1/2), apparent volume of distribution after oral administration (Vz/F), and oral clearance (Cl/F). The maximum plasma concentration (Cmax) and the time required to reach Cmax (Tmax) were directly measured from the plasma PTX concentration–time curve. The absolute BA and relative BA (AB and RB, respectively) of PTX were calculated using the respective formulas below:AB (%) = AUC po/AUC iv × IV dose/PO dose × 100 RB (%) = AUC po co–administration/AUC po control × 100

[6] = parameters: method as in doi:10.1016/S0378-5173(98)00188-4; conditions: cited from earlier work
[7] = test system: P-glycoprotein (P-gp); parameters: method as in PMID 12608532; conditions: cited from earlier work
[8] = test system: MES-SA/Dx5; parameters: method as in PMID 19275716; conditions: xenograft mice with MES-SA/Dx5 (P-gp overexpressed) vs parental cells; cited from earlier work
[9] = PTX 25 mg/kg PO alone (oral control)
[10] = male, Sprague-Dawley, rat, plasma, PTX 2 mg/kg IV (IV control)
[11] = male, Sprague-Dawley, rat, plasma, PTX 25 mg/kg PO alone (oral control)

Sequence of human P-gp membrane (P08183 whole entry): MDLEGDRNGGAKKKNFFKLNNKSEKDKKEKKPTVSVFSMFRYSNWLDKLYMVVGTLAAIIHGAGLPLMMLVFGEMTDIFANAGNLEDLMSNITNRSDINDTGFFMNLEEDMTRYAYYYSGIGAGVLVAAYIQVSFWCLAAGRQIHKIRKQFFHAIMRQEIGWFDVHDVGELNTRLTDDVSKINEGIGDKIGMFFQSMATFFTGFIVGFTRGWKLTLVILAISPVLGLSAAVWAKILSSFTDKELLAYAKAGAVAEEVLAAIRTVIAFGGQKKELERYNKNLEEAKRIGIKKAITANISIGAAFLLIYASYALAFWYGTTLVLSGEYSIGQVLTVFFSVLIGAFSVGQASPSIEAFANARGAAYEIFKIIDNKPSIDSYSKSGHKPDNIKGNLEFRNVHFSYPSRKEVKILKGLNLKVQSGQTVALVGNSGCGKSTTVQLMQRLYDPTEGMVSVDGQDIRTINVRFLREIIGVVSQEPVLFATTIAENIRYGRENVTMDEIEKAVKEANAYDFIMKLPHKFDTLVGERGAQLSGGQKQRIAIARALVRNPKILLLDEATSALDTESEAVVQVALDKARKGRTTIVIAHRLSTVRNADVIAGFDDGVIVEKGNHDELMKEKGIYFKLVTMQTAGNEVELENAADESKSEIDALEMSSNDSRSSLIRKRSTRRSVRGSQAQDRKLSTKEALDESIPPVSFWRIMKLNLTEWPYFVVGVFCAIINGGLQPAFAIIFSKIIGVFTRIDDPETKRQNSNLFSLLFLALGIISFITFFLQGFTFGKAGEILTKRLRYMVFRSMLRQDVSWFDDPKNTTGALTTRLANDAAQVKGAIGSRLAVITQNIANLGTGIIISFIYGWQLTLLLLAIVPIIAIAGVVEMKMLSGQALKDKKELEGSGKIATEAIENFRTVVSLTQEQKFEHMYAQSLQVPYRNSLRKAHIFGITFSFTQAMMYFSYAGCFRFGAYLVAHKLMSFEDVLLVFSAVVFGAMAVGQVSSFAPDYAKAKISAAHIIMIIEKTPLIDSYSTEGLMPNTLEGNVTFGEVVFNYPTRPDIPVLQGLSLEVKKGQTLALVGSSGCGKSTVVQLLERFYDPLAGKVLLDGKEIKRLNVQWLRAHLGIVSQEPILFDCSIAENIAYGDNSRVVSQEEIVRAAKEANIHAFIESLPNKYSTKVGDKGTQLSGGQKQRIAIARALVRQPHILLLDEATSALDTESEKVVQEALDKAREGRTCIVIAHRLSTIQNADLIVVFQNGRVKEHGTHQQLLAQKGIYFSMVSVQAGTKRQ
T1 sequence (P08183 whole entry): as above

Structure (SMILES)	cell survival ratio ([1]; 5 μM)	cell survival ratio ([1]; 10 μM)	cell survival ratio ([1]; 25 μM)	cell survival ratio ([1]; 50 μM)	cell survival ratio ([1]; 100 μM)	further results
O=C(CN(CC(=O)N1CCN(C(c2ccccc2)c2ccc(Cl)cc2)CC1)C(=O)c1ccc2ccccc2c1)NCc1ccccc1 (stereo not shown) [Compound 1]	89.77	90.47	89.23	88.56	87.21	–
O=C(CN(CC(=O)N1CCN(C(c2ccccc2)c2ccc(Cl)cc2)CC1)C(=O)Cc1ccccc1)Nc1nc(-c2ccc(Cl)cc2)cs1 (stereo not shown) [Compound 2]	102.70	102.87	86.94	86.10	87.75	P-gp ATPase activity compared to the control [2]: 1.3 fold; P-gp ATPase activity, ratio of the control (blank) [2]: 1.29
O=C(CN(CC(=O)N1CCN(C(c2ccccc2)c2ccc(Cl)cc2)CC1)C(=O)c1ccc2ccccc2c1)Nc1nc(-c2ccc(Cl)cc2)cs1 (stereo not shown) [Compound 3]	102.03	101.69	102.24	86.26	85.90	–
CC(=O)N(CC(=O)Nc1nc(-c2ccc(Br)cc2)cs1)CC(=O)N1CCN(C(c2ccccc2)c2ccc(Cl)cc2)CC1 (stereo not shown) [Compound 4, N-(4-(4-bromophenyl)thiazol-2-yl)-2-(N-(2-(4-((4-chlorophenyl)(phenyl)methyl)piperazin-1-yl)-2-oxoethyl)acetamido)acetamide]	100.76	98.50	96.14	96.90	87.63	P-gp ATPase activity compared to the control [2]: 1.2 fold; P-gp ATPase activity, ratio of the control (blank) [2]: 1.18
COc1ccc(CNC(=O)CN(CC(=O)N2CCN(C(c3ccccc3)c3ccc(Cl)cc3)CC2)C(=O)c2ccccc2)cc1 (stereo not shown) [Compound 5]	101.71	87.22	83.46	83.84	81.94	–
CC(C)(C)c1cc(NC(=O)CN(CC(=O)N2CCN(C(c3ccccc3)c3ccc(Cl)cc3)CC2)C(=O)c2ccccc2)no1 (stereo not shown) [Compound 6]	100.72	101.38	100.76	85.68	82.91	–
COc1cccc2c1C(=O)c1c(O)c3c(c(O)c1C2=O)C[C@@](O)(C(C)=O)C[C@@H]3O[C@H]1C[C@H](N)[C@H](O)[C@H](C)O1 [DNM, Daunomycin]	–	–	–	–	–	IC50 [3]: 31.7 µM; [3H]-DNM efflux [4]: 63.0 ± 3.3%
CC(=O)O[C@H]1C(=O)[C@@]2(C)[C@H]([C@H](OC(=O)c3ccccc3)[C@]3(O)C[C@H](OC(=O)[C@H](O)[C@@H](NC(=O)c4ccccc4)c4ccccc4)C(C)=C1C3(C)C)[C@]1(OC(C)=O)CO[C@@H]1C[C@@H]2O [PTX, Paclitaxel]	–	–	–	–	–	AB (absolute BA) of PTX ([5]; PTX 2 mg/kg IV (IV control)): 100.0%; Cl/F of PTX ([5]; PTX 2 mg/kg IV (IV control)): 614 ± 123 mL/h; Vz/F of PTX ([5]; PTX 2 mg/kg IV (IV control)): 1754 ± 419 mL; AB (absolute BA) of PTX [5, 9]: 7.1%; Cl/F of PTX [5, 9]: 8721 ± 2040 mL/h; Cmax [5, 10]: 2970 ± 428 ng/mL; AUC(0-inf) [5, 10]: 835 ± 155 ng·h/mL; k el [5, 10]: 0.000103 s⁻¹; half-life [5, 10]: 2.06 ± 0.8 h; Cmax [5, 11]: 189 ± 76 ng/mL; Tmax [5, 11]: 2 h; AUC(0-inf) [5, 11]: 745 ± 208 ng·h/mL; Vd/F ([5]; male, Sprague-Dawley, rat, plasma, PTX 25 mg/kg PO alone (oral control), read-out: Vz/F of PTX): 40.6 L; k el [5, 11]: 6.47e-05 s⁻¹; half-life [5, 11]: 3.1 ± 0.8 h; bioavailability of PTX [6]: below 10%; share of orally administered PTX excluded from the GI track by P-gp [7]: approximately 50%
O=C(C(c1ccccc1)c1ccc([125I])cc1)N1CCN(CC(O)COc2cccc3ncccc23)CC1 (stereo not shown) [radio-iodinated piperazine derivative, 5-[3-{4-(2-phenyl-2-(4-[125I]iodo-phenyl)acetyl)piperazin-1-yl}-2-hydroxypropoxy] quinoline]	–	–	–	–	–	shortening of absorption half-life [8]: ~10 fold; shortening of mean residence time [8]: 50%

Reference: article PMC6359037, “Effects of Piperazine Derivative on Paclitaxel Pharmacokinetics” (Pharmaceutics, 2019)
